Test results as given in US8633208B2, “6-1H-imidazo-quinazoline and quinolines derivatives, new MAO inhibitors and imidazoline receptor ligands” (Rottapharm S.p.A, priority 2008, dated 2014).
Counter-ions that a name gives are not always drawn. Like-named read-outs stand apart in the source and are kept apart here.

Experiments:
CD1 Mice [1] = conditions: commercially available antidepressant drugs, subcutaneous; Millan MJ et al., 2001 JPET, 298(2): 581-591; cited from earlier work
I2 Imidazoline Receptor = experiment: Binding study towards I2 imidazoline receptor subtype in rat brain ([3H]2-BFI displacement); conditions: read-out: [3H]2-BFI binding IC50; rat whole brain membranes, [3H]-2BFI 2.5x10-9 M, 90 min at 25° C.
Method: Binding Study Towards I2 Imidazoline Receptor Subtype in Rat Brain.
Male Wistar rats (240-300 g, Harlan, Italy) were sacrificed by decapitation. Whole brains were immediately removed on ice and homogenised in 10 volumes of buffered sucrose (0.32M in 50 mM Tris-HCl, pH 7.4 at 4° C.) using a motor driven Teflon-glass homogeniser. The homogenate was centrifuged at 1000×g for 10 min at 4° C. The resultant supernatants were pooled and centrifuged at 32000×g for 20 min at 4° C. The supernatants were discarded and each pellet suspended in 10 volumes of assay buffer (50 mM Tris-HCl, 1 mM MgCl2, pH 7.4 at 4° C.) and spun at 32000×g for 20 min at 4° C. The pellets were washed twice by repeated centrifugation at 32000×g for 20 min at 4° C. The final pellets were stored at −80° C. until use. Prior to radioligand binding studies, membrane pellets were thawed and washed a further 4 times by re-suspension in 10 volumes of assay buffer (as above) and repeated centrifugation to remove any possible endogenous inhibitors of binding. […] Non specific binding was determined in the presence of 10^-5 M BU224 (Tocris Bioscience). The incubation, in a final volume of 1 ml, was performed in polystyrene multiwell 24, started adding membranes suspension and was carried out for 90 min at 25° C. With the exception of total binding and non specific binding, all concentration points were performed in duplicate. Compounds were tested in 3-5 different concentrations, ranging from 10^-10 M to 10^-5 M final concentration.

CD1 Mice [2] = experiment: Tail suspension test in mice; type: in vivo; conditions: for ED50: oral
Method: Tail Suspension Test in Mice
To evaluate novel antidepressants compounds several animal models have been developed. […] The antidepressant effect of representative examples of compounds of formula (I) has been evaluated according to the procedure below. The immobility was induced according to the procedure of Stem et al. (1985). CD1 Mice (Harlan, Italy) were individually suspended 75 cm above the top with an adhesive tape placed 1 cm from the tip of the tail. Immobility duration was recorded for 5 min. Mice were considered immobile only when they hung passively and completely motionless. Compounds were given orally, 30 min before the test at doses ranging between 0.3 and 30 mg/kg. Data collected were expressed as mean percent effect (MPE), which represents the % of inhibition in immobility time between the animals treated with representative compounds of formula (I) and the controls that received only the vehicle.

rats = experiment: CFA model of inflammatory pain in rats (Randall-Selitto), potentiation of a low dose of morphine; type: in vivo
human recombinant MAO-A = human recombinant MAO-A (Homo sapiens (Human), UniProt P21397); experiment: Monoaminooxidase (MAO) activity assay, MAO-Glo luminescent method, MAO-A
Chain of human recombinant MAO-A (P21397 whole entry): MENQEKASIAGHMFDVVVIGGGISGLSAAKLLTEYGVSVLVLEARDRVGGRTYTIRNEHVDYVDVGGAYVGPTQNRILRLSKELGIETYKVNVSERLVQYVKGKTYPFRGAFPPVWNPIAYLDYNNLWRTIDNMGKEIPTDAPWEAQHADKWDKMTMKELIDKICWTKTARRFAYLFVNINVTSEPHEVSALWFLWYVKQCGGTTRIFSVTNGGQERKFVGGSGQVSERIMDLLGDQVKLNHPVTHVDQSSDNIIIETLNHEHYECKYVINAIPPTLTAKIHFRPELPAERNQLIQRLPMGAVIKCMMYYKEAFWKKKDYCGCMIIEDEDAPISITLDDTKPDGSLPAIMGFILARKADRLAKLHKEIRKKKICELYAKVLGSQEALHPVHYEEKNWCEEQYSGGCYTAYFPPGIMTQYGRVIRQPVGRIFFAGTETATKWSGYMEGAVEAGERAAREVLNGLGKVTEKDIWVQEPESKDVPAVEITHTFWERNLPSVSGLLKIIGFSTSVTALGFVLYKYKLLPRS
Method: Monoaminooxidase (MAO) Activity Assay.
(§1) Inhibitory activity of compounds was evaluated by a homogeneous luminescent method, the MAO-Glo™ Assay (Promega), measuring the monoamine oxidase activity (MAOs) from recombinant source (microsomes from baculovirus infected insect cells, Sigma). Experiments were performed according to the Supplier's procedure, incubating human recombinant MAO-A or MAO-B with a luminogenic substrate, a derivative of beetle luciferin ((4S)-4,5-dihydro-2-(6-hydroxybenzothiazolyl)-4-thiazolecarboxylic acid). […] The MAO-Glo™ Assay was performed in two steps:
(§2) Step 1. The MAO reaction: MAO substrate was incubated with MAO-A or MAO-B (1 μg/sample) in the absence (Total activity) or presence (modulated activity) of test compounds. Total activity was determined in the presence the appropriate solvent. […] Reaction started adding the enzyme solution and samples were incubated for 60 min at room temperature. For negative control reaction, samples of MAO reaction buffer (100 mM Hepes, 5% glycerol, pH 7.5) indeed the test compound were included. For MAO-B activity assay, MAO reaction buffer contain 10% DMSO, in order to increase enzymatic activity. Step 2. […] At the end of incubation 50 μl of Luciferin Detection reagent were added to each well, plate was incubated at room temperature for 20 min, then luminescent signal was detected by luminometer (integration time 0.25-1 sec per well). […] Net MAO-dependent luminescence (net RLU) were calculated by subtracting the average luminescence of the negative control reaction without MAO enzyme. A reduction of net signal in the presence of test compound, with respect to total activity, reflect its effect on MAOs activity. […] A percentage of inhibition for each concentration tested were calculated and the IC50 value was estimated by linear regression.

human recombinant MAO-B = human recombinant MAO-B (Homo sapiens (Human), UniProt P27338); experiment: Monoaminooxidase (MAO) activity assay, MAO-Glo luminescent method, MAO-B
Chain of human recombinant MAO-B (P27338 whole entry): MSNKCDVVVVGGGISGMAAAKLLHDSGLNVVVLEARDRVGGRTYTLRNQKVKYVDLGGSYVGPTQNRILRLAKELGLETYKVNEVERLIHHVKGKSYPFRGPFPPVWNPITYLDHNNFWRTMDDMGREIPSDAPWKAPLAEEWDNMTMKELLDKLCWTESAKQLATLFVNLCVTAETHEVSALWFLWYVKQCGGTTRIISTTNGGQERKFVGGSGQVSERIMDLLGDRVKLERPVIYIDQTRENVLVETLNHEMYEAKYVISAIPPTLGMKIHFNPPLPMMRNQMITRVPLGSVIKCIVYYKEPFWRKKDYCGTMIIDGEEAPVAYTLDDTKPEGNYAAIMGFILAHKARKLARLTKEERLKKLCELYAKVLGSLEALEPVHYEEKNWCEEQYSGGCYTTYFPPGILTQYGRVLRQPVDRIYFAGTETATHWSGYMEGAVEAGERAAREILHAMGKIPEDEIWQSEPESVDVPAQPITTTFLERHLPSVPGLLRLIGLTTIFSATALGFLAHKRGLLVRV
Method: Monoaminooxidase (MAO) Activity Assay.
as §1, §2

[3] = Table 3, dose 3 mg/Kg OS, 30 min before the test
[4] = Table 3, dose 10 mg/Kg OS, 30 min before the test
[5] = Table 3, dose 30 mg/Kg OS, 30 min before the test
[6] = Table 3, dose yielding 50% reduction of immobility
[7] = read-out: MAO A activity IC50, human recombinant MAO-A, substrate 40 μM, 60 min room temperature

SMILES: CN(C)CCCC1(c2ccc(F)cc2)OCc2cc(C#N)ccc21 (stereo not drawn) [Citalopram]
- ED50 (CD1 Mice [1]): 8.8 mg/Kg; SC

SMILES: c1ccc(-c2ncc3cc(-n4ccnc4)ccc3n2)cc1 [Example 1, [6-(1H-imidazol-1-yl)-2-phenyl]quinazoline]
- IC50 (I2 Imidazoline Receptor): 680 nM
- antidepressant-like effect in the presence of Idazoxan (CD1 Mice [2]; 0.3 mg/Kg Idazoxan, antagonist of imidazoline (I2) receptors): blocked
- MPE (% inhibition in immobility time) (CD1 Mice [2]; Table 3, dose 0.3 mg/Kg OS, 30 min before the test): 35%
- MPE (% inhibition in immobility time) (CD1 Mice [2]; Table 3, dose 1 mg/Kg OS, 30 min before the test): 38%
- MPE (% inhibition in immobility time) (CD1 Mice [2]; [3]): 40%
- MPE (% inhibition in immobility time) (CD1 Mice [2]; [4]): 66%
- MPE (% inhibition in immobility time) (CD1 Mice [2]; [5]): 84%
- ED50 (CD1 Mice [2]; [6]): 4.8 mg/Kg; OS
- MPE (% inhibition in immobility time) (CD1 Mice [2]; Table 4, Example 1 dose 3 mg/Kg OS, alone or with Idazoxan 0.3 mg/Kg IP): 43%
- MPE (% inhibition in immobility time) (CD1 Mice [2]; Table 4, Example 1 dose 10 mg/Kg OS, alone or with Idazoxan 0.3 mg/Kg IP): 54%
- MPE (% inhibition in immobility time) (CD1 Mice [2]; Table 4, Example 1 dose 30 mg/Kg OS, alone or with Idazoxan 0.3 mg/Kg IP): 97%
- ED50 (CD1 Mice [2]; Table 4): 5.1 mg/Kg; OS
- MPE 2 h (difference in pain threshold) (rats; rat, in vivo): 17.19%
- MPE 3 h (difference in pain threshold) (rats; rat, in vivo): 6.61%
- MPE 4 h (difference in pain threshold) (rats; rat, in vivo): 2.46%
- IC50 (human recombinant MAO-A; [7]): 220 nM
- IC50 (human recombinant MAO-B): > 10000 nM

SMILES: Cc1nccn1-c1ccc2nc(-c3ccccc3)ncc2c1 [Example 2, [6-(2-methyl-1H-imidazol-1-yl)-2-phenyl]quinazoline]
- IC50 (I2 Imidazoline Receptor): 2400 nM
- MPE (% inhibition in immobility time) (CD1 Mice [2]; [3]): 17%
- MPE (% inhibition in immobility time) (CD1 Mice [2]; [4]): 77%
- MPE (% inhibition in immobility time) (CD1 Mice [2]; [5]): 83%
- ED50 (CD1 Mice [2]; [6]): 7.1 mg/Kg; OS
- melting point: 198.3 to 200.3 °C
- IC50 (human recombinant MAO-A): > 10000 nM
- IC50 (human recombinant MAO-B): > 10000 nM

SMILES: Cc1cn(-c2ccc3nc(-c4ccccc4)ncc3c2)cn1 [Example 4, [6-(4-methyl-1H-imidazol-1-yl)-2-phenyl]quinazoline]
- IC50 (I2 Imidazoline Receptor): 480 nM
- melting point: 201.9 to 202.8 °C
- IC50 (human recombinant MAO-A; [7]): 2060 nM
- IC50 (human recombinant MAO-B): > 10000 nM

SMILES: Cc1cncn1-c1ccc2nc(-c3ccccc3)ncc2c1 [Example 5, [6-(5-methyl-1H-imidazol-1-yl)-2-phenyl]quinazoline]
- IC50 (I2 Imidazoline Receptor): 1180 nM
- MPE (% inhibition in immobility time) (CD1 Mice [2]; [3]): 41%
- MPE (% inhibition in immobility time) (CD1 Mice [2]; [4]): 61%
- MPE (% inhibition in immobility time) (CD1 Mice [2]; [5]): 91%
- ED50 (CD1 Mice [2]; [6]): 4.9 mg/Kg; OS
- IC50 (human recombinant MAO-A): > 10000 nM
- IC50 (human recombinant MAO-B): > 10000 nM

SMILES: COc1ccccc1-c1ncc2cc(-n3cnc(C)c3)ccc2n1 [Example 7, [6-(4-methyl-1H-imidazol-1-yl)-2-(2-methoxyphenyl)]quinazoline]
- IC50 (I2 Imidazoline Receptor): 2180 nM
- melting point: 160.6 to 162 °C
- IC50 (human recombinant MAO-A): > 10000 nM
- IC50 (human recombinant MAO-B): > 10000 nM

SMILES: c1cn(-c2ccc3nc(-c4ccc5c(c4)OCO5)ccc3c2)cn1 [Example 16, [6-(1H-imidazol-1-yl)-2-(1,3-benzodioxol-5-yl)]quinoline dihydrochloride]
- IC50 (I2 Imidazoline Receptor): 190 nM
- MPE (% inhibition in immobility time) (CD1 Mice [2]; [3]): 41%
- MPE (% inhibition in immobility time) (CD1 Mice [2]; [4]): 66%
- MPE (% inhibition in immobility time) (CD1 Mice [2]; [5]): 100%
- ED50 (CD1 Mice [2]; [6]): 4.6 mg/Kg; OS
- IC50 (human recombinant MAO-A): > 10000 nM
- IC50 (human recombinant MAO-B): > 10000 nM

SMILES: COc1ccccc1-c1ccc2cc(-n3ccnc3)ccc2n1 [Example 19, [6-(1H-imidazol-1-yl)-2-(2-methoxyphenyl)]quinoline dihydrochloride]
- IC50 (I2 Imidazoline Receptor): 3160 nM
- IC50 (human recombinant MAO-A): > 10000 nM
- IC50 (human recombinant MAO-B): > 10000 nM

SMILES: c1cn(-c2ccc3nc(-c4ccoc4)ccc3c2)cn1 [Example 20, [6-(1H-imidazol-1-yl)-2-(3-furyl)]quinoline dihydrochloride]
- IC50 (I2 Imidazoline Receptor): 1190 nM
- IC50 (human recombinant MAO-A; [7]): 250 nM
- IC50 (human recombinant MAO-B): > 10000 nM

SMILES: Fc1ccc(-c2ccc3cc(-n4ccnc4)ccc3n2)cc1 [Example 21, [6-(1H-imidazol-1-yl)-2-(4-fluorophenyl)]quinoline dihydrochloride]
- IC50 (I2 Imidazoline Receptor): 240 nM
- MPE (% inhibition in immobility time) (CD1 Mice [2]; [3]): 36%
- MPE (% inhibition in immobility time) (CD1 Mice [2]; [4]): 72%
- MPE (% inhibition in immobility time) (CD1 Mice [2]; [5]): 89%
- ED50 (CD1 Mice [2]; [6]): 4.9 mg/Kg; OS
- IC50 (human recombinant MAO-A): > 10000 nM
- IC50 (human recombinant MAO-B): > 10000 nM

SMILES: CN(C)c1ccc(-c2ccc3cc(-n4ccnc4)ccc3n2)cc1 [Example 22, [6-(1H-imidazol-1-yl)-2-(4-dimethylaminophenyl)]quinoline trihydrochloride]
- IC50 (I2 Imidazoline Receptor): 3780 nM
- IC50 (human recombinant MAO-A; [7]): 2090 nM
- IC50 (human recombinant MAO-B; read-out: MAO B activity IC50, human recombinant MAO-B, substrate 4 μM, 60 min room temperature): 1490 nM

SMILES: FC(F)(F)Oc1ccc(-c2ccc3cc(-n4ccnc4)ccc3n2)cc1 [Example 23, [6-(1H-imidazol-1-yl)-2-(4-trifluoromethoxyphenyl)]quinoline dihydrochloride]
- IC50 (I2 Imidazoline Receptor): 820 nM
- IC50 (human recombinant MAO-A; [7]): 150 nM
- IC50 (human recombinant MAO-B): > 10000 nM

SMILES: Cc1cc(OC(F)(F)F)ccc1-c1ccc2cc(-n3ccnc3)ccc2n1 [Example 24, [6-(1H-imidazol-1-yl)-2-(2-methyl-4-trifluoromethoxyphenyl)]quinoline dihydrochloride]
- IC50 (I2 Imidazoline Receptor): 1140 nM
- IC50 (human recombinant MAO-A; [7]): 280 nM
- IC50 (human recombinant MAO-B): > 10000 nM

SMILES: c1ccc2c(c1)OCC(C1=NCCN1)O2 (stereo not drawn) [Idazoxan, reference compound]
- IC50 (I2 Imidazoline Receptor): 11 nM
- IC50 (human recombinant MAO-A): > 1000 nM
- IC50 (human recombinant MAO-B): > 1000 nM

SMILES: CN1CC[C@]23c4c5ccc(O)c4O[C@H]2[C@@H](O)C=C[C@H]3[C@H]1C5 [Morphine, reference compound]
- MPE 2 h (difference in pain threshold) (rats; 2 h, Example 1 1.5 mg/Kg OS and/or Morphine 0.5 mg/Kg SC): 42.88%
- MPE 3 h (difference in pain threshold) (rats; 3 h, Example 1 1.5 mg/Kg OS and/or Morphine 0.5 mg/Kg SC): 30.49%
- MPE 4 h (difference in pain threshold) (rats; 4 h, Example 1 1.5 mg/Kg OS and/or Morphine 0.5 mg/Kg SC): 15.04%

SMILES: CCOc1ccccc1OC(c1ccccc1)C1CNCCO1 (stereo not drawn) [Reboxetine]
- ED50 (CD1 Mice [1]): 4.2 mg/Kg; SC

SMILES: COc1ccc(C(CN(C)C)C2(O)CCCCC2)cc1 (stereo not drawn) [Venlafaxine]
- ED50 (CD1 Mice [1]): 11.7 mg/Kg; SC
